Patent publication US20100279997A1, “ANALGESIC THAT BINDS FILAMIN A” (priority 2009, published 2010)
Where two headings read alike, the source gives them in different places.

Columns and labels:
[1] = biological target: Bn-VAKGL pentapeptide of filamin A (FLNA) (Homo sapiens, UniProt P21333); assay: FITC-NLX-based FLNA screening assay (FLNA peptide binding assay)
Experimental: The final assay volume is 100 μl.
Compounds are tested in triplicate or quadruplicate.

μ opiate receptor (MOR) = biological target: T1, μ opiate receptor (MOR) (Rattus norvegicus, UniProt P33535); assay: MOR agonist activity, [35S]GTPγS binding assay using striatal membranes; type: biochemical; settings: for [35S]GTPγS binding to Gαo, FLNA-binding compound as agonist 0.1 μM: 0.1 μM compound; for [35S]GTPγS binding to Gαo, FLNA-binding compound as agonist 0.1 μM / [35S]GTPγS binding to Gαo, FLNA-binding compound as agonist 1 μM: striatal membranes; for [35S]GTPγS binding to Gαo, FLNA-binding compound as agonist 1 μM + BFNA: 1 μM compound + 1 μM β-funaltrexamine; for [35S]GTPγS binding to Gαo, FLNA-binding compound as agonist 1 μM: 1 μM compound; for % DAMGO + BFNA: relative to DAMGO + BFNA; for % DAMGO (0.1 μM) / % DAMGO (1 μM): relative to DAMGO
T1 construct: from tissue; host or cells: striatal tissue (membrane preparation)
T1 sequence (P33535 whole entry): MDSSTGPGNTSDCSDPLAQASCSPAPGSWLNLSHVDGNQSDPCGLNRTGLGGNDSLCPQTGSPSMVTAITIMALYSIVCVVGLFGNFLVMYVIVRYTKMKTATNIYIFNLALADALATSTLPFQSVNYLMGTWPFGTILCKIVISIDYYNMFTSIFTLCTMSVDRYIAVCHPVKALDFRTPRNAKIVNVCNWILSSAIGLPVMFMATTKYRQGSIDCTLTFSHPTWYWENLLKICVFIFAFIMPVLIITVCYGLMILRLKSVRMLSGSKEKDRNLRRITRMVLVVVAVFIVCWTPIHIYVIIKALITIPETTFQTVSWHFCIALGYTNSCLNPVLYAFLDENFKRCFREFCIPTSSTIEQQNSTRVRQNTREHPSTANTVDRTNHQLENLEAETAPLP
Experimental: To assess the μ opiate receptor (MOR) agonist activity of positive compounds from the FLNA screening, compounds were tested in a [^35S]GTPγS binding assay using striatal membranes.
Striatal tissue was homogenized in 10 volumes of ice cold 25 mM HEPES buffer, pH 7.4, which contained 1 mM EGTA, 100 mM sucrose, 50 μg/ml leupeptin, 0.04 mM PMSF, 2 μg/ml soybean trypsin inhibitor and 0.2% 2-mercaptoethanol. The homogenates were centrifuged at 800×g for 5 minutes and the supernatants were centrifuged at 49,000×g for 20 minutes. The resulting pellets were suspended in 10 volume of reaction buffer, which contained 25 mM HEPES, pH 7.5, 100 mM NaCl, 50 μg/ml leupeptin, 2 μg/ml soybean trypsin inhibitor, 0.04 mM PMSF and 0.02% […].
The resultant striatal membrane preparation (200 μg) was admixed and maintained (incubated) at 30° C. for 5 minutes in reaction buffer as above that additionally contained 1 mM MgCl2 and 0.5 nM [^35S]GTPγS (0.1 μCi/assay, PerkinElmer Life and Analytical Sciences) in a total volume of 250 μl and continued for 5 minutes in the absence or presence of 0.1-10 μM of an assayed compound of interest. The reaction was terminated by dilution with 750 μl of ice-cold reaction buffer that contained 20 mM MgCl2 and 1 mM EGTA and immediate centrifugation at 16,000×g for 5 minutes.
The resulting pellet was solubilized by sonicating for 10 seconds in 0.5 ml of immunoprecipitation buffer containing 0.5% digitonin, 0.2% sodium cholate and 0.5% NP-40. Normal rabbit serum (1 μl) was added to 1 ml of lysate and incubated at 25° C. for 30 minutes. Nonspecific immune complexes were removed by incubation with 25 μl of protein A/G-conjugated agarose beads at 25° C. for 30 minutes followed by centrifugation at 5,000×g at 4° C. for 5 minutes. The supernatant was divided and separately incubated at 25° C. for 30 minutes with antibodies raised against Gao proteins (1:1,000 dilutions).
The immunocomplexes so formed were collected by incubation at 25° C. for 30 minutes with 40 μl of agarose-conjugated protein A/G beads and centrifugation at 5,000×g at 4° C. for 5 minutes. The pellet was washed and suspended in buffer containing 50 mM Tris-HCl, pH 8.0, and 1% NP-40. The radioactivity in the suspension was determined by liquid scintillation spectrometry. […] DAMGO (H-Tyr-D-Ala-Gly-N-MePhe-Gly-OH; 1 or 10 μM) was used as a positive control.

[2] = read-out: Percent inhibition of FITC-NLX binding, 0.01 μM, 0.01 μM compound, 10 nM FITC-NLX
[3] = read-out: Percent inhibition of FITC-NLX binding, 0.1 μM, 0.1 μM compound, 10 nM FITC-NLX
[4] = read-out: Percent inhibition of FITC-NLX binding, 1 μM, 1 μM compound, 10 nM FITC-NLX
[5] = read-out: Percent inhibition of FITC-NLX binding, 0.01 μM
[6] = read-out: Percent inhibition of FITC-NLX binding, 0.1 μM
[7] = read-out: Percent inhibition of FITC-NLX binding, 1 μM

| Compound | inhibition at 0.01 µM [1, 2] | inhibition at 0.1 µM [1, 3] | inhibition at 1 µM [1, 4] | [35S]GTPγS binding to Gαo, FLNA-binding compound as agonist 0.1 μM (μ opiate receptor (MOR)) | [35S]GTPγS binding to Gαo, FLNA-binding compound as agonist 1 μM + BFNA (μ opiate receptor (MOR)) | [35S]GTPγS binding to Gαo, FLNA-binding compound as agonist 1 μM (μ opiate receptor (MOR)) | % DAMGO + BFNA (μ opiate receptor (MOR)) | % DAMGO (0.1 μM) (μ opiate receptor (MOR)) | % DAMGO (1 μM) (μ opiate receptor (MOR)) | inhibition at 0.01 µM [1, 5] | inhibition at 0.1 µM [1, 6] | inhibition at 1 µM [1, 7] |
| --- | --- | --- | --- | --- | --- | --- | --- | --- | --- | --- | --- | --- |
| COc1ccc(OCC(O)CN2CCc3cc4c(c(OC)c3C2)OCO4)cc1 (stereo not shown) [Compound A0070] | 32.9% | 39.1% | 41.7% | 128.6% | 80.3% | 195.3% | 232.8% | 74.7% | 88.9% |  |  |  |
| OC(CN1CCc2ccccc2C1)OCc1ccc(Br)c(F)c1 (stereo not shown) [Compound A0057] |  |  |  | 124.2% | 44.8% | 192.1% | 112.3% | 79.6% | 83.3% | 29.1% | 37% | 43.4% |
| OC(COc1ccc(Br)c(F)c1)CN1CCN(CCN2CCOCC2)CC1 (stereo not shown) [Compound A0063] |  |  |  | 122.8% | 310% | 245.8% | 77.7% | 78.7% | 106.6% | 21.2% | 31% | 38.8% |
| CC1CN(CC(O)COc2ccccc2C(C)C)CC(C)O1 (stereo not shown) [Compound A0029] |  | 44.4% |  | 173.8% | 22.3% | 206.5% |  |  |  |  |  |  |
| COc1ccc(OCC(O)CN2CCC(=O)CC2)cc1 (stereo not shown) [Compound A0071] | 44.7% | 46.8% | 53.9% | 225.7% | 239.4% | 310.9% | 1088.2% | 128.2% | 122.9% |  |  |  |
| COc1ccc(OCC(O)CN2CCCc3ccccc32)cc1 (stereo not shown) [Compound A0067] | 32.7% | 39.1% | 44.3% | 170.8% | 33.9% | 254.4% | 98.3% | 99.2% | 115.8% |  |  |  |
| COc1ccc(OCC(O)CN2CCN(Cc3ccccc3)CC2)cc1 (stereo not shown) [Compound A0073] |  |  |  | 201.7% | 185.8% | 325.7% | 344.7% | 100.5% | 103.7% | 47.3% | 54.8% | 59.7% |
| OC(COc1cccc(F)c1)CN1CCc2ccccc2C1 (stereo not shown) [Compound A0055] |  |  |  | 89.8% | 33.5% | 195.2% |  |  |  |  |  |  |
| CC1CN(CC(O)COc2cccc(C(F)(F)F)c2)CC(C)O1 (stereo not shown) [Compound A0051] |  |  |  | 290.4% | 211.6% | 386.6% |  |  |  |  |  |  |
| CC1CCC(C(C)C)C(OCC(CN2CC(C)OC(C)C2)NCc2ccccc2)C1 (stereo not shown) [Compound A0033] |  |  |  | 155.8% | 118.2% | 254.6% |  |  |  |  |  |  |
| CC1CCC(C(C)C)C(OCC(O)CN2CCCCC2)C1 (stereo not shown) [Compound A0005] |  |  |  | 179.7% | 23.5% | 239.2% |  |  |  |  |  |  |
| CC1CCC(C(C)C)C(OCC(O)CN2CCCCC2C)C1 (stereo not shown) [Compound A0007] |  |  |  | 102.0% | 40.4% | 221.9% |  |  |  |  |  |  |
| CC1CCC(C(C)C)C(OCC(O)CN2CCC(=O)CC2)C1 (stereo not shown) [Compound A0060] |  |  |  | 99.7% | 14.3% | 158.2% |  |  |  |  |  |  |
| COc1ccc(OCC(O)CN2CCc3ccccc32)cc1 (stereo not shown) [Compound A0069] |  |  |  |  |  |  |  |  |  | 32% | 40.4% | 46.1% |
| CC1CCC(C(C)C)C(OCC(O)CN(C(C)C)C(C)C)C1 (stereo not shown) [Compound A0037] |  |  |  | 177.9% | 104.6% | 236.2% | 141.5% | 90.7% | 85.6% |  |  |  |
| CC1CCC(C(C)C)C(OCC(O)CN2CCN(CCCN3CCOCC3)CC2)C1 (stereo not shown) [Compound A0026] |  |  |  | 140.7% | 120.8% | 179.8% |  |  |  |  |  |  |
| CC1CN(CC(O)COc2ccc(Cl)cc2)CC(C)O1 (stereo not shown) [Compound A0047] |  |  |  | 233.0% | 116.5% | 255.0% |  |  |  |  |  |  |
| CC1CCC(C(C)C)C(OCC(O)CN2CCCC2=O)C1 (stereo not shown) [Compound A0035] |  |  |  | 120.6% | 88.6% | 158.8% |  |  |  |  |  |  |
| CC1CCC(C(C)C)C(OCC(O)CN2CCC(=O)C(C)C2)C1 (stereo not shown) [Compound A0056] |  |  |  | 115.6% | 17.4% | 129.6% |  |  |  |  |  |  |
